Test results reported in patent publication US20220339127A1, “DRUGGABLE TARGET TO TREAT RETINAL DEGENERATION” (The United States of America,as represented by the …, priority 2019, published 2022).
“Also recorded” adds a separate entry of the source.

Key:
Type in all cases: cell-based, human
[1] = system: iRPE cells; test: Proteotoxic high throughput screen (LOPAC) and follow up screen: survival of A23187 treated iRPE; conditions: seven-point dose curve; A23187 2.5, 5, 10 μM; two iRPE samples
Procedure: 10 μM concentration of A23187 was selected for the drug screening, because it provided a bigger margin for cell death rescue. […] Drug treatment along with the stressor, 10 μM A23187 were added on to iRPE cells matured in 384-well plates and cell death was scored 48 hours later by ATP release using the CellTitrGlo assay.
To distinguish false positives from the real signal, a follow up screen on all of the 45 drugs using iRPE derived from two different iPSC lines was performed. The follow up screen was performed at three different A23187 concentrations (2.5, 5, 10 μM) and with seven different concentrations of drugs ranging from 10 nM-1 mM (FIG. 13D-F). […] Overall, the HTS screen provided two drugs for testing in the in vitro AMD model.

[2] = system: iRPE monolayer; test: Transepithelial resistance (TER) of CC-HS treated iRPE monolayer; conditions: compstatin 10 μM and PMX053 10 μM used together in CC-HS
From the text: Lastly, it was checked if the drugs rescued mature RPE phenotype and RPE functionality.

[3] = system: iRPE cells; test: Sub-RPE APOE deposits in CC-HS treated iRPE with receptor blockers; conditions: concurrent use of compstatin 10 μM (C3aR1 blocker) and PMX053 10 μM (C5aR1 blocker) in CC-HS
From the text: It was hypothesized that CC-HS triggered AMD cellular phenotypes in iRPE cells are generated by the anaphylatoxin arm of the complement pathway via C3a-C3aR1 and C5a-05aR1 signaling induced intracellular inflammation (Fernandez-Godino and Pierce 2018). RNAseq confirmed the expression of both receptors in iRPE cells with ˜30× higher expression in of C5aR1 as compared to C3aR1 (FIG. 10A). Furthermore, the expression of both receptors increases with CC-HS treatment. Western blot confirmed C3aR1 and C5aR1 receptors localization in the membrane fraction of iRPE cells (FIG. 2A). […] To verify that CC-HS activates C3aR and C5aR signaling in iRPE cells, samples were checked for phosphorylation of AKT and ERK1/2, the two key kinases downstream of C3aR1 and C5aR1 receptors (Hajishengallis and Lambris 2010; Zhu et al 2015 Mol Vis; Busch et al 2017 Front. In Immu.). […] Furthermore, consistent with the predominant apical localization of C3aR1 and C5aR1, apical only treatment of CC-HS caused a 4.5-5×TER drop (p<10^−16), similar to the combined apical/basal treatment of CC-HS. In contrast, basal only treatment of CC-HS resulted only in a 2×TER drop (p<10^−16) (FIG. 2H). To further dissect the role of C5aR1 and C3aR1 signaling in inducing AMD cellular phenotypes in iRPE cells, a depleted sera and receptor blocker strategy was employed. […]

[4] = system: AMPK; test: Phospho-AMPK ELISA in iPSC-RPE of L-ORD patients and unaffected siblings; conditions: for p-AMPK levels: 0% serum, 2 mM AICAR or 500 nM BAM15
Procedure: Thus, in FIG. 16b iPSC-RPE were incubated with recombinant CTRP5 globular form (0.2 μg/mL gCTRP5) for 30 min in the presence (+) and absence (−) of serum to evaluate its role in AMPK signaling.
To better elucidate the ADIPOR1-CTRP5 (receptor-ligand) interaction, […] a ligand dose response curve was performed (in serum free media) by exogenously adding increasing concentrations of recombinant full length CTRP5 (FIG. 16c).
AMPK is a sensitive indicator of the cell energy status and is canonically activated by the levels of AMP or ATP (Hardie and Lin, 2017). Therefore, the AMPK activity (in serum free media) of sibling and patient iPSC-RPE under conditions (increased AMP:ATP ratio) known to stimulate AMPK phosphorylation was characterized (FIG. 16d). iPSC-RPE were incubated in serum deprived media for 5 hours (Park et al., 2009) followed by 30 mins exposure to AICAR (an AMP analogue) or BAM15 (a mitochondrial uncoupler to reduce ATP production).
Metformin treatment consisted of 3 mM metformin added to the apical and basal media for 1½- 2 weeks.

[5] = system: iRPE cells; test: A23187 cytotoxicity on iRPE cells (CellTitrGlo ATP release)
From the text: It was hypothesized that the loss of epithelial phenotype/RPE dedifferentiation is a key AMD cellular phenotype and easier to set up for a high throughput screen. Drugs that would suppress RPE dedifferentiation and recover the epithelial phenotype in cells might also work to rescue additional AMD cellular endophenotypes. Drug screen was designed using a calcium-ionophore A23187 instead of CC-HS serum, for three reasons: 1) CC-HS lost activity in liquid handler tubing used for medium change, likely because active complement proteins were absorbed on the walls of liquid handler tubes; 2) Similar to A23187, CC-HS treatment of iRPE also led to a defect in intracellular calcium homeostasis.
10 μM concentration of A23187 was selected for the drug screening, because it provided a bigger margin for cell death rescue. A commercially available library of pharmaceutically active compounds (LOPAC) with 1280 drugs was used for the screen at two different concentrations 9.2 μM and 46 μM. […]

[6] = system: ABCA1; test: Bodipy lipid deposits in CC-HS treated Stargardt iRPE with ABCA1 activator; conditions: 10 μM
From the text: 115(36): p. 9014-9019]. […] To further understand the ABCA4 driven mechanism in disease pathogenesis, this example focuses on ABCA1- an ABCA4 homolog, involved in cholesterol transport. […] Journal of Biological Chemistry, 2013. 288(48): p. 34414-34426, Tanaka, A. R., et al., Human ABCA1 contains a large amino-terminal extracellular domain homologous to an epitope of Sjögren's Syndrome. Biochemical and biophysical research communications, 2001. 283(5): p. 1019-1025, Storti, F., et al., Impaired ABCA1/ABCG1-mediated lipid efflux in the mouse retinal pigment epithelium (RPE) leads to retinal degeneration. Elife, 2019. 8: p. e45100.]. To determine if both ABCA proteins work through the lipid handling pathway, the effects of modulating ABCA1 expression on changes the disease phenotype in Stargardt RPE cells was observed. An shRNA knockdown of ABCA1 in ABCA4 iRPE cells was performed and the cells were treated with CC-HS. […] (FIG. 34A-G), In contrast, lipid accumulation defects in Stargardt RPE cells were rescued by ABCA1 overactivation using GW3965 (ABCA1 activator) (FIG. 34 H-N).

[7] = unaffected siblings, 5h 0% serum, 30 min, 25 ug/mL

COc1cc2ncnc(Nc3cccc(Cl)c3)c2cc1OC [AG-1478]
cytoprotective activity in follow up screen [1]: linear response the seven-point dose curve and reproducibility between two different iRPE samples

CC[C@H](C)[C@H](N)C(=O)N[C@H]1CSSC[C@@H](C(=O)N[C@H](C(N)=O)[C@@H](C)O)NC(=O)[C@H](CCCN=C(N)N)NC(=O)[C@H](Cc2cnc[nH]2)NC(=O)[C@H](Cc2cnc[nH]2)NC(=O)CNC(=O)[C@H](Cc2c[nH]c3ccccc23)NC(=O)[C@H](CC(=O)O)NC(=O)[C@H](CCC(N)=O)NC(=O)[C@H](C(C)C)NC(=O)[C@H](C(C)C)NC1=O [compstatin]
higher iRPE monolayer TER compared to CC-HS treated samples [2]: 5 ×
lower sub-RPE APOE deposits compared to CC-HS plus vehicle [3]: 2 ×

Fc1ccccc1Nc1nc2nonc2nc1Nc1ccccc1F [BAM15]
p-AMPK levels ([4]; L-ORD patient RPE, 30 min): insensitive
p-AMPK levels ([4]; unaffected siblings, 30 min): further stimulates phosphorylation of AMPK; also recorded: further elevation in AMPK levels

CNc1ccc2oc(C[C@H]3O[C@@]4(CC[C@H]3C)O[C@H]([C@H](C)C(=O)c3ccc[nH]3)[C@H](C)C[C@H]4C)nc2c1C(=O)O [A23187]
cell death ([5]; 2.5 μM A23187, 48 hours): 50%
toxicity to iRPE cells ([5]; 96 hours, 2.5, 10, 25 μM A23187): completely toxic; also recorded: cytotoxic

NC(=O)c1ncn([C@@H]2O[C@H](CO)[C@@H](O)[C@H]2O)c1N [AICAR]
p-AMPK levels ([4]; L-ORD patient RPE, 30 min): insensitive
p-AMPK levels ([4]; unaffected siblings, 30 min): stimulates further phosphorylation of AMPK; also recorded: further elevation in AMPK levels

O=C(O)Cc1cccc(OCCCN(Cc2cccc(C(F)(F)F)c2Cl)CC(c2ccccc2)c2ccccc2)c1 [GW3965]
intra/sub-RPE bodipy-positive lipid deposits [6]: rescued
intra/sub-RPE bodipy-positive lipid deposits ([6]; listed as GW 3965): reduced lipid deposit

B1: recombinant full length CTRP5: recombinant full length CTRP5 (protein, UniProt Q9BXJ0 1-243, looked up)
chain: MRPLLVLLLLGLAAGSPPLDDNKIPSLCPGHPGLPGTPGHHGSQGLPGRDGRDGRDGAPGAPGEKGEGGRPGLPGPRGDPGPRGEAGPAGPTGPAGECSVPPRSAFSAKRSESRVPPPSDAPLPFDRVLVNEQGHYDAVTGKFTCQVPGVYYFAVHATVYRASLQFDLVKNGESIASFFQFFGGWPKPASLSGGAMVRLEPEDQVWVQVGVGDYIGIYASIKTDSTFSGFLVYSDWHSSPVFA
modifications: full-length
change in p-AMPK levels ([4]; L-ORD patient RPE, similar concentrations, serum free): had no effect on AMPK activity; also recorded: no measurable change
p-AMPK level [4, 7]: 47.89%±0.13
reduction in p-AMPK levels [4, 7]: 50%
